The values below come from patent US20220249533A1, “COMPOSITIONS AND METHODS FOR BONE REPAIR AND BONE HEALTH” (DUKE UNIVERSITY, priority 2019, published 2022).

For one experiment, the system named is OVX mice. The experiment can be described thus: A2BR agonist BAY 60-6583 treatment of OVX animals. In kind it is in vivo.
The test system of experiment [1] is primary mouse osteoprogenitor cells. Description: Adenosine-induced osteogenic differentiation in vitro. In kind it is cell-based. The settings on record: adenosine 30 μg/ml, 7 or 14 days, no osteogenic-inducing factors. An excerpt:
Osteoprogenitor cells were isolated as previously described with modifications. All buffers were ice cold, unless otherwise indicated. Briefly, the femur, tibia, humerus, radius, and ulna of mice were harvested. BM was flushed out and discarded. The bone was collected and cut into 1-mm^3 chips in harvest buffer and then digested in digestion buffer containing growth media [α minimum essential medium (αMEM), fetal bovine serum (FBS) (10%, v/v), penicillin/streptomycin (10,000 U/ml; 1%, v/v)], and collagenase type 2 (1 mg/ml, w/v; Worthington Biochemical, Lakewood, N.J.) while shaking at 60 rpm on orbital shaker (catalog no. 51700-13, Cole-Parmer, Vernon Hills, Ill.) in humidified incubator (37° C., 5% CO2) for 1.5 hours. Digested bone chips were rinsed three times with growth media and transferred to two wells of six-well plate for culture. Media were […] days, and bone chips were further cultured for 3 days for cells to adhere and proliferate before passage. For the first passage, cells were treated with 0.25% trypsin-EDTA (Thermo Fisher Scientific) for 3 min, neutralized with growth media, detached with cell scraper, and subcultured along with bone chips. The procedure for subsequent passages were similar but without bone chips. All experiments were performed at three to four passages. […]

For experiment [2], the system named is mouse mononuclear cells undergoing osteoclast differentiation. The experiment can be described thus: Osteoclast differentiation with adenosine in vitro. Format: cell-based. The settings on record: adenosine 30 μg/ml, 6 days of osteoclast differentiation. Here is the method:
All buffers used were ice cold, unless otherwise indicated. Briefly, the femur, tibia, humerus, radius, ulna, and vertebra were harvested and crushed with pestle and mortar in harvest buffer [phosphate-buffered solution (PBS) and FBS (2%, v/v)] to release BM tissue. BM was passed through a 70-μm cell strainer and centrifuged at 200 g for 5 min. Cells were resuspended in harvest buffer, gently layered onto Ficoll-Paque PLUS (GE Healthcare, Marlborough, Mass.) at 1:1 ratio, and centrifuged without rotor acceleration and deceleration at 200 g for 15 min. Afterward, the opaque middle layer with cells was collected, washed with harvest buffer, and centrifuged at 200 g for 5 min to yield a cell pellet. Isolated mononuclear cells were cultured in macrophage induction media, containing growth media, prostaglandin E2 (PGE2; 10^−7 M; Santa Cruz Biotechnology, Dallas, Tex.), and M-CSF (10 ng/ml; PeproTech, Rocky Hill, N.J.) at 100,000 cells/cm^2. For osteoclast differentiation, macrophages cultured for 3 days were further induced in osteoclast induction media containing growth media, PGE2 (10^−7 M), M-CSF (10 ng/ml), and RANKL (10 ng/ml; PeproTech). […]

For experiment [3], the system named is young and old mice bone marrow stromal cells. The experiment can be described thus: Alizarin Red S deposition, bone marrow stromal cells with adenosine. In kind it is cell-based, mouse. Here is the method: Alizarin Red S, an anthraquinone derivative, may be used to identify calcium in tissue sections. […] Calcium forms an Alizarin Red S-calcium complex in a chelation process, and the end product is birefringent. […]
• Aspirate medium from cell dish (P1 cells). • Rinse with sterile PBS, aspirate. • Add 5 mL trypsin (T75 flask), incubate for 4 min at 37 C. • Add 5 mL GM to stop. • Use cell scraper to further release cells. • Transfer to tube, use additional 5 mL GM to rinse the dish and transfer. • Spin down at 1200 rpm for 4 min. • Resuspend cells, seed into culture plate at 20,000 cells/cm^2. • 2 mL/well in 6-well • 0.5 mL/well in 24-well • Freeze the rest cells in freezing medium. • 10% DMSO • 90% GM • Prepare GM-ADO (60 ug/mL) fresh: • 18 mL GM • 180 uL ADO stock (6 mg/mL) • Refresh medium daily for two weeks with the culture conditions: • GM • GM-ADO • OM (positive control) • In the third week, use phosphate supplementation: • GM+ADO +3 mM phosphate • GM+3 mM phosphate • OM (positive control) • Alizarin red S staining at 14 d and 21 d • Wash cells gently with PBS. • Fix with 4% PFA for 15 min. […] Discard milliQ water. • Alizarin red S quantification • Add 500 ul of HCl (0.5M) to each well for 10 min. at room temp with gentle shaking. • Transfer HCl solution in each well into one 1.5 ml microcentrifuge tube. […]

For `N#Cc1c(N)nc(SCC(N)=O)c(C#N)c1-c1ccc(OCC2CC2)cc1` [BAY 60-6583], in the experiment with OVX mice (1 mg/kg intraperitoneally every 2 days, 8 weeks), the “bone tissue, H&E staining” value was “attenuation of bone loss”. In the experiment with OVX mice (8 weeks), the “OVX changes of vertebra BMD, BV/TV, Tb.N, Tb.Sp by microCT” value is given as “attenuated” and the “femur bone volume (BV/TV) by microCT” value was “bone loss was diminished”. In addition, in the experiment on OVX mice (8 weeks, bone labeling), the “mineral apposition rate and bone formation rate” value is listed as “abrogation of the bone loss”. Besides, the “maximum load and stiffness of tibia” value in the experiment on OVX mice (8 weeks, compared to the corresponding controls) was “improved”. In addition, the “TRAP-positive cells on the bone surface” value in the experiment on OVX mice (8 weeks, compared to the vehicle control) is “decreased number”. For the same compound, the “CD73 and CD39 expression levels, immunofluorescence” value in the experiment with OVX mice (vehicle- vs BAY 60-6583-treated groups) was “no significant differences”.

As for `Nc1ncnc2c1ncn2[C@@H]1O[C@H](CO)[C@@H](O)[C@H]1O` [adenosine], the “expression of osterix (OSX) and osteopontin (OPN)” value in experiment [1] was “up-regulation”. The “expression of Nfatc1, ACP5 and CTSK” value in experiment [2] was “reduced expression”. The “fold change of alizarin red S deposition, ADO compared to GM” value in experiment [3] (female) was “larger fold change”. Also, the “osteogenic differentiation, alizarin red S deposition” value in experiment [3] (young and aged cells from either sex, 2D culture, ADO 60 ug/mL) is listed as “induced osteogenic differentiation”.
